Measurements published in patent US20220064138A1, “MACROLIDE BREFELDIN A ESTER DERIVATIVES AND USE THEREOF” (OCEAN UNIVERSITY OF CHINA, priority 2019, published 2022).
Converted amounts (≈) assume the structure as drawn.

What was measured:
[1] = system: human breast cancer MCF7 cells; assay: Cell proliferation assay (CCK-8); assay type: cell-based; conditions: MCF7, 72 h
Text: (§1) CCK-8 method: The CCK-8 method is a highly sensitive, non-radioactive colorimetric assay for the determination of the number of viable cells in cell proliferation or cytotoxicity assays. The orange formazan dye produced by the bioreduction of CCK-8 by intracellular dehydrogenase is soluble in the cell culture medium, and the amount of formazan dye produced is proportional to the number of living cells. The kit used in this method is the tetrazolium salt-WST-8 (2-(2-methoxy-4-nitrophenyl)-3-(4-nitrophenyl)-5-(2,4-disulfophenyl)-2H-tetrazolium monosodium salt) developed by Dojindo Chemical Research Institute (Dojindo), which is capable of being reduced to a water-soluble formazan dye in the presence of the electronic carrier 1-Methoxy PMS.
(§2) Human cervical cancer Hela cells, pancreatic cancer PANC-1 cells, esophageal cancer Eca-109 cells, human leukemia K562 cells, human lung cancer A549 cells, human liver cancer HepG2 cells, human gastric cancer MKN-45 cells, human breast cancer MCF7 cells were cultured in DMEM medium containing 10% FBS (fetal bovine serum), 100 U/mL penicillin and 100 μg/ml streptomycin. Hepatocellular carcinoma cells Bel-7402 were cultured in RPMI-1640 medium containing 10% FBS (fetal bovine serum), 100 U/ml penicillin and 100 μg/ml streptomycin. All cells were placed in a cell culture incubator at 37° C. with 5% CO2. Cells fluid was changed every 3-5 days, and after 80% cell fusion, trypsin digestion and passaging were performed to keep the cells in good logarithmic growth phase.
(§3) All the samples to be tested were dissolved in DMSO.
(§4) Cells in logarithmic growth phase were inoculated in 96-well plates with 5000 cells/well respectively, and after 24 h of incubation, samples were added (final concentrations as shown in the table), and biplicate wells were set up for each sample. The amount of solvent of DMSO was not higher than 2‰. After 72 h, 10 μL of CCK-8 solution was added to each well and incubated for 1.5˜3 h at 37° C. The OD value at 450 nm was measured on an plate reader.
(§5) Inhibition rate (%)=(1−[(OD450 dosed well−OD450 blank well)/(OD450 control well−OD450 blank well)])×100%
(§6) The fitted IC50 values were calculated using the log (inhibitor) vs. response-Variable slop analysis method in GraphPad Prism software.

[2] = system: human liver cancer HepG2 cells; assay: Cell proliferation assay (CCK-8); assay type: cell-based; conditions: HepG2, 72 h
Text: as §1, §2, §3, §4, §5, §6

[3] = system: esophageal cancer Eca-109 cells; assay: Cell proliferation assay (CCK-8); assay type: cell-based; conditions: Homo sapiens, Eca-109, 72 h
Text: as §1, §2, §3, §4, §5, §6

[4] = system: human gastric cancer MKN-45 cells; assay: Cell proliferation assay (CCK-8); assay type: cell-based; conditions: MKN-45, 72 h
Text: as §1, §2, §3, §4, §5, §6

[5] = system: pancreatic cancer PANC-1 cells; assay: Cell proliferation assay (CCK-8); assay type: cell-based; conditions: Homo sapiens, PANC-1, 72 h
Text: as §1, §2, §3, §4, §5, §6

[6] = system: human leukemia K562 cells; assay: Cell proliferation assay (CCK-8); assay type: cell-based; conditions: K562, 72 h
Text: as §1, §2, §3, §4, §5, §6

[7] = system: Human cervical cancer Hela cells; assay: Cell proliferation assay (CCK-8); assay type: cell-based; conditions: 72 h
Text: as §1, §2, §3, §4, §5, §6

[8] = system: human lung cancer A549 cells; assay: Cell proliferation assay (CCK-8); assay type: cell-based; conditions: A549, 72 h
Text: as §1, §2, §3, §4, §5, §6

[9] = system: Kunming breed mice; assay: Toxicity test after intraperitoneal administration to mice; assay type: in vivo; conditions: 14 d; for Deaths: high and low doses (BFA effective amount conversion), ip., mice; for Mental condition of the animals after administration / Results of anatomy: abnormality in organs: male, Kunming, mouse, in vivo, ip
Protocol: Objective: Observation of toxic effects of compounds after intraperitoneally administration (ip.) to mice
1) Agents: Compounds disclosed herein were formulated to a suitable concentration.
2) Animals: Kunming breed mice, weight 18-22 g, male. Provided by Jinan Pengyue Laboratory Animal Breeding Co., Ltd. Animal license number: SCXK (Shandong 20140007)
Method: Kunming breed mice, were randomly grouped by weight, 6 mice per group, namely normal control group, BFA high and low dose groups (100 mg/kg and 50 mg/kg, respectively), and high and low dose groups of some compounds disclosed herein (BFA effective amount conversion). […] After 14 d of continuous administration, all the animals were weighed, and the animals were executed to observe whether there were any abnormalities in the organs.

[10] = Solubility test (shaking 24 h at 37° C., HPLC)

SMILES | IC50 [1] | IC50 [2] | IC50 [3] | IC50 [4] | IC50 [5] | IC50 [6] | IC50 [7] | IC50 [8] | Deaths [9] | Mental condition of the animals after administration [9] | Results of anatomy: abnormality in organs [9] | solubility at 24 h ([10]; 5% DMSO + 95% H2O) | solubility at 24 h ([10]; acetone) | solubility at 24 h ([10]; methanol)
C[C@H]1CCC/C=C/[C@@H]2C[C@H](O)C[C@H]2[C@H](OC(=O)/C=C/c2cccnc2)/C=C/C(=O)O1 [Compound 16b] | 100 to 1000 nM | < 100 nM | 100 to 1000 nM | 100 to 1000 nM | < 100 nM | 100 to 1000 nM | 100 to 1000 nM | 100 to 1000 nM | no deaths | good mental condition | no significant abnormality in all organs |  |  | 
C[C@H]1CCC/C=C/[C@@H]2C[C@H](OC(=O)/C=C/c3cccc(F)c3)C[C@H]2[C@H](OC(=O)/C=C/c2cccc(F)c2)/C=C/C(=O)O1 [Compound 1c, 4,7-O-bis(3-fluorocinnamic acid)acyl BFA] | 1000 to 10000 nM | 1000 to 10000 nM | 1000 to 10000 nM | 100 to 1000 nM | 1000 to 10000 nM | 100 to 1000 nM | 1000 to 10000 nM | 1000 to 10000 nM | no deaths | good mental condition | no significant abnormality in all organs | 0.2 ± 0.91 mg/mL | 12.1 ± 0.91 mg/mL (≈ 21.1 mM) | 12.2 ± 1.59 mg/mL (≈ 21.2 mM)
C[C@H]1CCC/C=C/[C@@H]2C[C@H](OC(=O)/C=C/c3cccnc3)C[C@H]2[C@H](OC(=O)/C=C/c2cccnc2)/C=C/C(=O)O1 [Compound 16c] | 1000 to 10000 nM | 100 to 1000 nM | 1000 to 10000 nM | 1000 to 10000 nM | 100 to 1000 nM | 100 to 1000 nM | 1000 to 10000 nM | 100 to 1000 nM | no deaths | good mental condition | no significant abnormality in all organs |  |  | 
C[C@H]1CCC/C=C/[C@@H]2C[C@H](OC(=O)/C=C/c3ccc(N(C)C)cc3)C[C@H]2[C@H](O)/C=C/C(=O)O1 [Compound 10a, 7-O-(4-dimethylaminocinnamic acid)acyl BFA] | 100 to 1000 nM | 1000 to 10000 nM | 1000 to 10000 nM | 100 to 1000 nM | 1000 to 10000 nM | 100 to 1000 nM | 1000 to 10000 nM | 100 to 1000 nM | no deaths | good mental condition | no significant abnormality in all organs | 0.75 ± 1.6 mg/mL | 25.6 ± 1.74 mg/mL (≈ 56.5 mM) | 25.3 ± 4.35 mg/mL (≈ 55.7 mM)
C[C@H]1CCC/C=C/[C@@H]2C[C@H](O)C[C@H]2[C@H](OC(=O)/C=C/c2cccc(F)c2)/C=C/C(=O)O1 [Compound 1b, 4-O-(3-fluorocinnamic acid)acyl BFA] | 100 to 1000 nM | 100 to 1000 nM | 100 to 1000 nM | 100 to 1000 nM | 100 to 1000 nM | 100 to 1000 nM | 100 to 1000 nM | 100 to 1000 nM | no deaths | good mental condition | no significant abnormality in all organs | 0.32 ± 0.05 mg/mL | 21 ± 1.42 mg/mL (≈ 49.1 mM) | 21.1 ± 1.32 mg/mL (≈ 49.3 mM)
Cc1ccccc1/C=C/C(=O)O[C@@H]1C[C@H]2[C@H](O)/C=C/C(=O)O[C@@H](C)CCC/C=C/[C@@H]2C1 [Compound 8a, 7-O-(2-methylcinnamic acid)acyl BFA] | 100 to 1000 nM | 1000 to 10000 nM | 100 to 1000 nM | 100 to 1000 nM | 100 to 1000 nM | 1000 to 10000 nM | 1000 to 10000 nM | 100 to 1000 nM |  |  |  |  |  | 
C[C@H]1CCC/C=C/[C@@H]2C[C@H](OC(=O)/C=C/c3ccccn3)C[C@H]2[C@H](OC(=O)/C=C/c2ccccn2)/C=C/C(=O)O1 [Compound 15c] | 100 to 1000 nM | 100 to 1000 nM | 1000 to 10000 nM | 1000 to 10000 nM | 100 to 1000 nM | 100 to 1000 nM | 1000 to 10000 nM | 100 to 1000 nM |  |  |  |  |  | 
C[C@H]1CCC/C=C/[C@@H]2C[C@H](O)C[C@H]2[C@H](OC(=O)/C=C/c2ccccn2)/C=C/C(=O)O1 [Compound 15b] | 100 to 1000 nM | < 100 nM | 100 to 1000 nM | 100 to 1000 nM | < 100 nM | 100 to 1000 nM | 100 to 1000 nM | 100 to 1000 nM |  |  |  |  |  | 
C[C@H]1CCC/C=C/[C@@H]2C[C@H](OC(=O)/C=C/c3ccc4c(c3)OCO4)C[C@H]2C(OC(=O)/C=C/c2ccc3c(c2)OCO3)/C=C/C(=O)O1 (stereo partly shown) [Compound 9c, 4,7-O-bis((E)-3-(benzo[d][1,3]dioxa-5-yl)acrylic acid)acyl BFA] | 1000 to 10000 nM | 1000 to 10000 nM | 1000 to 10000 nM | 100 to 1000 nM | 1000 to 10000 nM | 100 to 1000 nM | 1000 to 10000 nM | 1000 to 10000 nM |  |  |  |  |  | 
COc1cc(/C=C/C(=O)O[C@@H]2/C=C/C(=O)O[C@@H](C)CCC/C=C/[C@@H]3C[C@H](O)C[C@H]32)cc(OC)c1OC [Compound 11b, 4-O-(3,4,5-trimethoxycinnamic acid)acyl BFA] | 100 to 1000 nM | 100 to 1000 nM | 1000 to 10000 nM | 100 to 1000 nM | 100 to 1000 nM | 100 to 1000 nM | 1000 to 10000 nM | 100 to 1000 nM |  |  |  |  |  | 
C[C@H]1CCC/C=C/[C@@H]2C[C@H](O)C[C@H]2[C@H](OC(=O)/C=C/c2ccc(C(F)(F)F)cc2)/C=C/C(=O)O1 [Compound 13b, 4-O-(4-trifluoromethylcinnamic acid)acyl BFA] | 100 to 1000 nM | 100 to 1000 nM | 100 to 1000 nM | 100 to 1000 nM | 100 to 1000 nM | 100 to 1000 nM | 100 to 1000 nM | 100 to 1000 nM |  |  |  |  |  | 
